Laboratory results published in the supplement of paper PMC8149375.

Tests used:
Conditions in all cases: treatment: drug alone; 5 days
[1] = system: 769-P; assay: GI50, drug alone; higher = less potent
Procedure: (§1)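 Primary HTS: 8 RCC cell lines treated with 8 doses (up to 10 uM) of each library drug alone for 5 days; viability read by CellTiter-Glo and normalised to DMSO. GI50 was fitted with XLfit (4-parameter), AUC is the area under the dose-response curve, and minimum viability is the lowest fraction of DMSO viability across doses.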

[2] = system: 786-O; assay: GI50, drug alone; higher = less potent
Procedure: as §1

[3] = system: A498; assay: GI50, drug alone; higher = less potent
Procedure: as §1

[4] = system: ACHN; assay: GI50, drug alone; higher = less potent
Procedure: as §1

[5] = system: CAKI-1; assay: GI50, drug alone; higher = less potent
Procedure: as §1

[6] = system: SN12C; assay: GI50, drug alone; higher = less potent
Procedure: as §1

[7] = system: TK-10; assay: GI50, drug alone; higher = less potent
Procedure: as §1

[8] = system: UO-31; assay: GI50, drug alone; higher = less potent
Procedure: as §1

[9] = system: 769-P; assay: minimum viability across doses, drug alone, relative to DMSO (fraction); higher = less growth inhibition
Procedure: as §1

[10] = system: 786-O; assay: as above
Procedure: as §1

[11] = system: A498; assay: as above
Procedure: as §1

[12] = system: ACHN; assay: as above
Procedure: as §1

[13] = system: CAKI-1; assay: as above
Procedure: as §1

[14] = system: SN12C; assay: as above
Procedure: as §1

[15] = system: TK-10; assay: as above
Procedure: as §1

[16] = system: UO-31; assay: as above
Procedure: as §1

[17] = system: 769-P; assay: AUC of dose-response viability curve, drug alone (arbitrary (AUC of normalised viability)); higher = less growth inhibition
Procedure: as §1

[18] = system: 786-O; assay: as above
Procedure: as §1

[19] = system: A498; assay: as above
Procedure: as §1

[20] = system: ACHN; assay: as above
Procedure: as §1

[21] = system: CAKI-1; assay: as above
Procedure: as §1

[22] = system: SN12C; assay: as above
Procedure: as §1

[23] = system: TK-10; assay: as above
Procedure: as §1

[24] = system: UO-31; assay: as above
Procedure: as §1

SMILES: CCC(=O)N1CCN(c2ccc(-n3c(=O)ccc4cnc5ccc(-c6cnc7ccccc7c6)cc5c43)cc2C(F)(F)F)CC1 [Torin 1]
- GI50, drug alone [1]: 0.0719 µM
- GI50, drug alone [2]: 0.0551 µM
- GI50, drug alone [3]: 0.0888 µM
- GI50, drug alone [4]: 0.0331 µM
- GI50, drug alone [5]: 0.057 µM
- GI50, drug alone [6]: 0.0872 µM
- GI50, drug alone [7]: > 10 µM
- GI50, drug alone [8]: 0.0767 µM
- minimum viability across doses [9]: 0.101
- minimum viability across doses [10]: 0.0473
- minimum viability across doses [11]: 0.0183
- minimum viability across doses [12]: 0.0432
- minimum viability across doses [13]: 0.0409
- minimum viability across doses [14]: 0.127
- minimum viability across doses [15]: 0.116
- minimum viability across doses [16]: 0.00725
- AUC of dose-response viability curve [17]: 1.54
- AUC of dose-response viability curve [18]: 1.39
- AUC of dose-response viability curve [19]: 1.81
- AUC of dose-response viability curve [20]: 1.13
- AUC of dose-response viability curve [21]: 1.32
- AUC of dose-response viability curve [22]: 1.56
- AUC of dose-response viability curve [23]: 1.33
- AUC of dose-response viability curve [24]: 1.71

SMILES: CC(C)(C)c1cc(/C=C(\C#N)C(N)=S)cc(C(C)(C)C)c1O [Tyrphostin AG 879 (AG 879)]
- GI50, drug alone [1]: > 10 µM
- GI50, drug alone [2]: < 0.003 µM
- GI50, drug alone [3]: > 10 µM
- GI50, drug alone [4]: > 10 µM
- GI50, drug alone [5]: > 10 µM
- GI50, drug alone [6]: > 10 µM
- GI50, drug alone [7]: > 10 µM
- GI50, drug alone [8]: > 10 µM
- minimum viability across doses [9]: 0.91
- minimum viability across doses [10]: 0.257
- minimum viability across doses [11]: 1.02
- minimum viability across doses [12]: 0.78
- minimum viability across doses [13]: 0.712
- minimum viability across doses [14]: 0.787
- minimum viability across doses [15]: 0.748
- minimum viability across doses [16]: 1.28
- AUC of dose-response viability curve [17]: 3.56
- AUC of dose-response viability curve [18]: 1.6
- AUC of dose-response viability curve [19]: 4.17
- AUC of dose-response viability curve [20]: 3.12
- AUC of dose-response viability curve [21]: 3.62
- AUC of dose-response viability curve [22]: 3.11
- AUC of dose-response viability curve [23]: 2.95
- AUC of dose-response viability curve [24]: 5.27

SMILES: CCO.N#CC(=C(/N)Sc1ccccc1N)/C(C#N)=C(\N)Sc1ccccc1N [U0126-EtOH]
- GI50, drug alone [1]: > 10 µM
- GI50, drug alone [2]: > 10 µM
- GI50, drug alone [3]: > 10 µM
- GI50, drug alone [4]: > 10 µM
- GI50, drug alone [5]: > 10 µM
- GI50, drug alone [6]: > 10 µM
- GI50, drug alone [7]: > 10 µM
- GI50, drug alone [8]: > 10 µM
- minimum viability across doses [9]: 0.806
- minimum viability across doses [10]: 0.576
- minimum viability across doses [11]: 0.913
- minimum viability across doses [12]: 0.646
- minimum viability across doses [13]: 0.564
- minimum viability across doses [14]: 0.901
- minimum viability across doses [15]: 0.656
- minimum viability across doses [16]: 0.943
- AUC of dose-response viability curve [17]: 3.3
- AUC of dose-response viability curve [18]: 2.86
- AUC of dose-response viability curve [19]: 3.94
- AUC of dose-response viability curve [20]: 3.17
- AUC of dose-response viability curve [21]: 3.35
- AUC of dose-response viability curve [22]: 3.49
- AUC of dose-response viability curve [23]: 2.95
- AUC of dose-response viability curve [24]: 4

SMILES: Cc1cc(Nc2cc(N3CCN(C)CC3)nc(Sc3ccc(NC(=O)C4CC4)cc3)n2)n[nH]1 [VX-680 (MK-0457, Tozasertib)]
- GI50, drug alone [1]: 2.93 µM
- GI50, drug alone [2]: 0.159 µM
- GI50, drug alone [3]: 3.2 µM
- GI50, drug alone [4]: 0.725 µM
- GI50, drug alone [5]: 1.25 µM
- GI50, drug alone [6]: 1.48 µM
- GI50, drug alone [7]: > 10 µM
- GI50, drug alone [8]: > 10 µM
- minimum viability across doses [9]: 0.386
- minimum viability across doses [10]: 0.133
- minimum viability across doses [11]: 0.254
- minimum viability across doses [12]: 0.214
- minimum viability across doses [13]: 0.241
- minimum viability across doses [14]: 0.2
- minimum viability across doses [15]: 0.548
- minimum viability across doses [16]: 0.577
- AUC of dose-response viability curve [17]: 2.67
- AUC of dose-response viability curve [18]: 1.85
- AUC of dose-response viability curve [19]: 3.1
- AUC of dose-response viability curve [20]: 2.35
- AUC of dose-response viability curve [21]: 2.54
- AUC of dose-response viability curve [22]: 2.57
- AUC of dose-response viability curve [23]: 2.96
- AUC of dose-response viability curve [24]: 3.24

SMILES: NC(=O)c1ccc(N(C(N)=O)c2c(F)cccc2F)nc1-c1ccc(F)cc1F [VX-702]
- GI50, drug alone [1]: > 10 µM
- GI50, drug alone [2]: > 10 µM
- GI50, drug alone [3]: > 10 µM
- GI50, drug alone [4]: > 10 µM
- GI50, drug alone [5]: > 10 µM
- GI50, drug alone [6]: > 10 µM
- GI50, drug alone [7]: > 10 µM
- GI50, drug alone [8]: > 10 µM
- minimum viability across doses [9]: 0.946
- minimum viability across doses [10]: 0.661
- minimum viability across doses [11]: 0.924
- minimum viability across doses [12]: 0.656
- minimum viability across doses [13]: 0.76
- minimum viability across doses [14]: 0.944
- minimum viability across doses [15]: 0.674
- minimum viability across doses [16]: 0.806
- AUC of dose-response viability curve [17]: 3.44
- AUC of dose-response viability curve [18]: 2.9
- AUC of dose-response viability curve [19]: 3.72
- AUC of dose-response viability curve [20]: 3.03
- AUC of dose-response viability curve [21]: 3.27
- AUC of dose-response viability curve [22]: 3.56
- AUC of dose-response viability curve [23]: 2.79
- AUC of dose-response viability curve [24]: 3.75

SMILES: COc1cc2c(Nc3ccc(Br)cc3F)ncnc2cc1OCC1CCN(C)CC1 [Vandetanib (Zactima)]
- GI50, drug alone [1]: 5.26 µM
- GI50, drug alone [2]: > 10 µM
- GI50, drug alone [3]: > 10 µM
- GI50, drug alone [4]: 1.57 µM
- GI50, drug alone [5]: 5.12 µM
- GI50, drug alone [6]: > 10 µM
- GI50, drug alone [7]: 1.8 µM
- GI50, drug alone [8]: 9.07 µM
- minimum viability across doses [9]: 0.324
- minimum viability across doses [10]: 0.532
- minimum viability across doses [11]: 0.68
- minimum viability across doses [12]: 0.133
- minimum viability across doses [13]: 0.265
- minimum viability across doses [14]: 0.507
- minimum viability across doses [15]: 0.166
- minimum viability across doses [16]: 0.162
- AUC of dose-response viability curve [17]: 2.88
- AUC of dose-response viability curve [18]: 2.98
- AUC of dose-response viability curve [19]: 3.29
- AUC of dose-response viability curve [20]: 2.6
- AUC of dose-response viability curve [21]: 3.12
- AUC of dose-response viability curve [22]: 3.2
- AUC of dose-response viability curve [23]: 2.58
- AUC of dose-response viability curve [24]: 4.05

SMILES: Cl.Cl.Clc1ccc(Nc2nnc(Cc3ccncc3)c3ccccc23)cc1 [Vatalanib dihydrochloride (PTK787)]
- GI50, drug alone [1]: > 10 µM
- GI50, drug alone [2]: > 10 µM
- GI50, drug alone [3]: > 10 µM
- GI50, drug alone [4]: > 10 µM
- GI50, drug alone [5]: > 10 µM
- GI50, drug alone [6]: > 10 µM
- GI50, drug alone [7]: > 10 µM
- GI50, drug alone [8]: > 10 µM
- minimum viability across doses [9]: 1.01
- minimum viability across doses [10]: 0.692
- minimum viability across doses [11]: 0.933
- minimum viability across doses [12]: 0.587
- minimum viability across doses [13]: 0.807
- minimum viability across doses [14]: 0.901
- minimum viability across doses [15]: 0.887
- minimum viability across doses [16]: 1.11
- AUC of dose-response viability curve [17]: 3.69
- AUC of dose-response viability curve [18]: 3.3
- AUC of dose-response viability curve [19]: 4.65
- AUC of dose-response viability curve [20]: 2.59
- AUC of dose-response viability curve [21]: 3.48
- AUC of dose-response viability curve [22]: 3.4
- AUC of dose-response viability curve [23]: 3.41
- AUC of dose-response viability curve [24]: 4.41

SMILES: CCCS(=O)(=O)Nc1ccc(F)c(C(=O)c2c[nH]c3ncc(-c4ccc(Cl)cc4)cc23)c1F [Vemurafenib (PLX4032)]
- GI50, drug alone [1]: > 10 µM
- GI50, drug alone [2]: 5.39 µM
- GI50, drug alone [3]: > 10 µM
- GI50, drug alone [4]: > 10 µM
- GI50, drug alone [5]: > 10 µM
- GI50, drug alone [6]: > 10 µM
- GI50, drug alone [7]: > 10 µM
- GI50, drug alone [8]: > 10 µM
- minimum viability across doses [9]: 0.884
- minimum viability across doses [10]: 0.271
- minimum viability across doses [11]: 0.93
- minimum viability across doses [12]: 0.634
- minimum viability across doses [13]: 0.76
- minimum viability across doses [14]: 0.764
- minimum viability across doses [15]: 0.647
- minimum viability across doses [16]: 0.7
- AUC of dose-response viability curve [17]: 2.31
- AUC of dose-response viability curve [18]: 2.45
- AUC of dose-response viability curve [19]: 3.73
- AUC of dose-response viability curve [20]: 3.08
- AUC of dose-response viability curve [21]: 3.43
- AUC of dose-response viability curve [22]: 3.05
- AUC of dose-response viability curve [23]: 3.05
- AUC of dose-response viability curve [24]: 3.42
